Measured values published in patent publication US11541029B2, “High penetration compositions and their applications” (Techfields Pharma Co., Ltd., priority 2008, dated 2023).
Like-named read-outs stand apart in the source and are kept apart here. One block for each compound: values may come before it.

Assays:
[1] = test system: lesions similar to psoriasis generated by Malassezia; assay: Anti-psoriasis activity, Malassezia-induced lesions; format: in vivo, Chinese white rabbits; settings: HPC 5% aq. applied to the lesion areas twice per day
Description: Heavy suspensions of Malassezia [Rosenberg, E. W., et al., Mycopathologia, 72, 147-154 (1980)] were applied to the shaved skin on the backs of Chinese white rabbits (n=4×6) twice (at […]) per day for 2 weeks to generate lesions similar to psoriasis. HPCs (5%, aq.) were applied to the same areas 3 hours (10 am and 6 pm) after the application of Malassezia (7 am and 3 pm). […] HCl, diethylaminoethyl 1,8-diethyl-1,3,4,9-tetrahydropyrano-[3,4-b]indole-1-acetate.HCl, diethylaminoethyl 2-amino-3-(4-bromo-benzoyl)benzeneacetate.HCl, diethylaminoethyl 3-chloro-4-(2-propenyloxy)benzeneacetate. HCl, diethylaminoethyl 1-(4-chlorobenzoyl-5-methoxy-2-methyl-1H-indole-3-acetoxyacetate. HCl, diethylaminoethyl 4-(4-chlorophenyl)-2-phenyl-5-thiazoleacetate.HCl, and diethylaminoethyl 3-(4-chlorophenyl)-1-phenyl-1H-pyrazole-4-acetate.HCl

[2] = In vitro penetration rate through human skin, Franz cells; format: in vitro ADME
Description: Penetration rates of HPCs through human skin were measured in vitro by Franz cells. A Franz cell has two chambers, a top sample chamber and a bottom receptor chamber.
Test compounds were diethylaminoethyl N-acetyl-3-(3,4-diacetyloxy-phenyl-L-alanine ester.HCl salt (A), diethylaminopropyl N-acetyl-D-3,5,3′,5′-tetraiodothyronine.HCl salt(B), 1-piperidineethyl 2-[4-(4-chlorobenzoyl)phenoxy]-2-methyl-propinate. HCl salt(C), 3-piperidinemethyl 5-(2,5-dimethylphenoxy)-2,2-dimethylpentanoate.HCl salt(D), diethylaminoethyl (S)-3-(benzoylaminomethyl)-5-methylhexanoate.HCl salt(E), N-acetyl-3-(3,4-diacetyloxy-phenyl-L-alanine(F) sodium salt, N-acetyl-D-3,5,3′,5′-tetraiodothyronine sodium salt(G), 2-[4-(4-chlorobenzoyl)phenoxy]-2-methyl-propinic acid sodium salt(H), 5-(2,5-dimethylphenoxy)-2,2-dimethylpentanoic acid sodium salt(I), and (S)-3-(benzoylaminomethyl)-5-methylhexanoic acid sodium salt(J).
10% solution of the test compound in water was used. The amount of a HPC or its parent drug penetrating a skin was determined by high-performance liquid chromatography method. The results were shown in FIG. 8 and apparent flux values of the HPCs and their corresponding parent drugs were summarized in Table 2.

[3] = test system: Human colon cancer cells (LS174J); assay: Human colon cancer xenograft in nude mice; settings: about 50 μl of 5% topically every 12 hours
Text: Human colon cancer cells (LS174J, 2-3 mm^3 of tumor tissue was used in each mouse) were subcutaneously xenografted into nude mice (BALB).

[4] = test system: SLAC:NOD-IDDM, type 1 diabetes; assay: Anti-diabetes (type I) activity of HPCs of NSAIAs; format: in vivo, mice
Text: 10% aqueous solution of diethylaminoethyl acetylsalicylate.acetylsalicylic acid salt (P-1, […]); 4-acetamidophenyl salicylyldimethylaminobutyrate. HCl (P-6), diethylaminoethyl 5-(2,4-difluorophenyl)acetylsalicylate.5-(2,4-difluorophenyl)acetylsalicylic acid salt (P-8), diethylaminoethyl salicylsalicylate.AcOH(P-9), diethylaminoethyl 5-acetamido-acetylsalicylate. HCl (P-58), diethylaminoethyl 2-(ρ-isobutylphenyl) propionate.citric acid (P-59), diethylaminoethyl acetylsalicylsalicylate. acetylsalicylsalicylsalicylic acid salt (P-60) (equal to of 20 mg/kg of NSAIAs) were administered transdermally to the shaved back (about 1.5 cm^2) of mice twice per day (at 8 am and 5 pm) for 7 weeks.
The blood glucose levels were measured once every 3 days at 4:30 pm (no fasting) from the fourth week to the seventh week as shown in Table 11.

[5] = test system: GK rats (SLAC/GK, type 2 diabetes); assay: Anti-diabetes (type II) activity of HPCs of NSAIAs in GK rats; format: in vivo; settings: 30 mg/kg transdermally once per day, no fasting
Description: (§1) A HPC in the present disclosure lowered blood glucose levels in rat models (SLAC/GK, type 2 diabetes, n=7). 30 mg/kg of 8% diethylaminoethyl acetylsalicylate.HCl salt (P-1, in 25% ethanol); 4-acetamidophenyl salicylyldimethylaminobutyrate.HCl (P-6, in 25% ethanol), diethylaminoethyl 5-(2,4-difluorophenyl)acetylsalicylate.5-(2,4-difluorophenyl)acetylsalicylic acid salt (P-8, in 25% ethanol), diethylaminoethyl salicylsalicylate.HCl salt (P-9, in 25% ethanol), diethylaminoethyl salicylate.AcOH(P-10, in 25% ethanol), diethylaminoethyl 5-acetamido-acetylsalicylate.HCl(P-58, in 25% ethanol), diethylaminoethyl acetylsalicylsalicylate. HCl salt (P-59, in 25% ethanol), diethylaminoethyl acetylsalicylsalicylsalicylate. HCl salt (P-60, in 25% ethanol) were administered transdermally to the backs (6 cm^2, fur was shaved) of GK rats (SLAC/GK, 14-16 weeks old) and normal SD rats (SLAC/SD, 14-16 weeks old) once per day (at 8 am) for 6 weeks.
(§2) The blood glucose levels were measured once every 3 days at 4:30 pm (no fasting) from the third week to the sixth week as shown in Table 10a and 10b. […] Moreover, the blood glucose levels of the rats stayed at normal level (6-9 mmol/L, no fasting) after the treatment was stopped for 40 days.

[6] = test system: SLAC/DB/DB obese mice; assay: Blood glucose and blood lipid levels in DB/DB mice; format: in vivo; settings: 30 mg/kg transdermally once per day
Description: HPCs in the present disclosure lowered blood glucose levels and blood lipid levels in mice models (SLAC/DB/DB, obese mice, n=7). 30 mg/kg of 8% diethylaminoethyl acetylsalicylate.HCl salt (P-1, in 25% ethanol); 4-acetamidophenyl salicylyldimethylaminobutyrate.HCl (P-6, in 25% ethanol), diethylaminoethyl 5-(2,4-difluorophenyl)acetylsalicylate.5-(2,4-difluorophenyl)acetylsalicylic acid salt (P-8, in 25% ethanol), diethylaminoethyl salicylsalicylate.HCl salt (P-9, in 25% ethanol), diethylaminoethyl salicylate.AcOH(P-10, in 25% ethanol), diethylaminoethyl 5-acetamido-acetylsalicylate.HCl(P-58, in 25% ethanol), diethylaminoethyl acetylsalicylsalicylate.HCl salt (P-59, in 25% ethanol), diethylaminoethyl acetylsalicylsalicylsalicylate.HCl salt (P-60, in 25% ethanol) were administered transdermally to the backs (4 cm^2,fur was shaved) of DB/DB mice(SLAC/DB/DB, 10-12 weeks old) once per day (at 8 am) for 5 weeks. The blood glucose levels were measured once per week and blood lipid levels were measured once every other week.

[7] = test system: normal SD rats (SLAC/SD); assay: Blood glucose in normal SD rats treated with HPCs of NSAIAs; format: in vivo; settings: 30 mg/kg transdermally once per day, no fasting
Description: as §1, §2

[8] = 10% solution in water, human skin 360-400 μm, Franz cells

Structure (SMILES): CCN(CC)CCOC(=O)Cc1sc(-c2ccccc2)nc1-c1ccc(Cl)cc1.Cl [diethylaminoethyl 4-(4-chlorophenyl)-2-phenyl-5-thiazoleacetate.HCl]
time until lesions healed after the application [1]: 10 days

Structure (SMILES): CCN(CC)CCOC(=O)COC(=O)Cc1c(C)n(C(=O)c2ccc(Cl)cc2)c2ccc(OC)cc12.Cl [diethylaminoethyl 1-(4-chlorobenzoyl-5-methoxy-2-methyl-1H-indole-3-acetoxyacetate. HCl]
time until lesions healed after the application [1]: 10 days

Structure (SMILES): CCN(CC)CCOC(=O)Cc1cn(-c2ccccc2)nc1-c1ccc(Cl)cc1.Cl [diethylaminoethyl 3-(4-chlorophenyl)-1-phenyl-1H-pyrazole-4-acetate.HCl]
time until lesions healed after the application [1]: 10 days

Structure (SMILES): CCN(CC)CCOC(=O)Cc1cccc(C(=O)c2ccc(Br)cc2)c1N.Cl [diethylaminoethyl 2-amino-3-(4-bromo-benzoyl)benzeneacetate.HCl]
time until lesions healed after the application [1]: 10 days

Structure (SMILES): CCN(CC)CCOC(=O)Cc1cc(C)c(C(=O)c2ccc(Cl)cc2)n1C.Cl [diethylaminoethyl 5-(4-Chlorobenzoyl)-1,4-dimethyl-1H-pyrrole-2-acetate. HCl]
time until lesions healed after the application [1]: 10 days

apparent flux (in vitro penetration rate) ([2]; human, 10 % solution in water): 1 μg/cm^2/h
Structure (SMILES): Cc1ccc(C)c(OCCCC(C)(C)C(=O)[O-])c1.[Na+] [5-(2,5-dimethylphenoxy)-2,2-dimethylpentanoic acid sodium salt, reference compound]

Structure (SMILES): CCc1cccc2c3c([nH]c12)C(CC)(CC(=O)OCCN(CC)CC)OCC3.Cl (centres unmarked) [diethylaminoethyl 1,8-diethyl-1,3,4,9-tetrahydropyrano-[3,4-b]indole-1-acetate.HCl]
time until lesions healed after the application [1]: 10 days

Structure (SMILES): CCN(CC)CCOC(=O)C[C@@H](CNC(=O)c1ccccc1)CC(C)C.Cl [diethylaminoethyl (S)-3-(benzoylaminomethyl)-5-methylhexanoate.HCl salt]
apparent flux (in vitro penetration rate) [2, 8]: 650 μg/cm^2/h

apparent flux (in vitro penetration rate) [2]: 400 μg/cm^2/h
Structure (SMILES): Cc1ccc(C)c(OCCCC(C)(C)C(=O)OCC2CCCNC2)c1.Cl (centres unmarked) [3-piperidinemethyl 5-(2,5-dimethylphenoxy)-2,2-dimethylpentanoate.HCl salt]

apparent flux (in vitro penetration rate) [2]: 550 μg/cm^2/h
Structure (SMILES): CCN(CC)CCOC(=O)[C@H](Cc1ccc(OC(C)=O)c(OC(C)=O)c1)NC(C)=O.Cl [diethylaminoethyl N-acetyl-3-(3,4-diacetyloxy-phenyl-L-alanine ester.HCl salt]

apparent flux (in vitro penetration rate) [2]: 1 μg/cm^2/h
Structure (SMILES): CC(C)(Oc1ccc(C(=O)c2ccc(Cl)cc2)cc1)C(=O)[O-].[Na+] [2-[4-(4-chlorobenzoyl)phenoxy]-2-methyl-propinic acid sodium salt, reference compound]

apparent flux (in vitro penetration rate) [2]: 590 μg/cm^2/h
Structure (SMILES): CC(C)(Oc1ccc(C(=O)c2ccc(Cl)cc2)cc1)C(=O)OCCN1CCCCC1.Cl [1-piperidineethyl 2-[4-(4-chlorobenzoyl)phenoxy]-2-methyl-propinate. HCl salt]

Structure (SMILES): C=CCOc1ccc(CC(=O)OCCN(CC)CC)cc1Cl.Cl [diethylaminoethyl 3-chloro-4-(2-propenyloxy)benzeneacetate. HCl]
time until lesions healed after the application [1]: 10 days

apparent flux (in vitro penetration rate) ([2]; human, 10 % solution in water): 1 μg/cm^2/h
Structure (SMILES): CC(=O)N[C@H](Cc1cc(I)c(Oc2cc(I)c(O)c(I)c2)c(I)c1)C(=O)[O-].[Na+] [N-acetyl-D-3,5,3′,5′-tetraiodothyronine sodium salt, reference compound]

Structure (SMILES): CC(C)C[C@H](CNC(=O)c1ccccc1)CC(=O)[O-].[Na+] [(S)-3-(benzoylaminomethyl)-5-methylhexanoic acid sodium salt, reference compound]
apparent flux (in vitro penetration rate) [2, 8]: 1 μg/cm^2/h

apparent flux (in vitro penetration rate) [2]: 480 μg/cm^2/h
Structure (SMILES): CCN(CC)CCCOC(=O)[C@@H](Cc1cc(I)c(Oc2cc(I)c(O)c(I)c2)c(I)c1)NC(C)=O.Cl [diethylaminopropyl N-acetyl-D-3,5,3′,5′-tetraiodothyronine.HCl salt]

Structure (SMILES): CCN(CC)CCOC(=O)Cc1ccc(C(=O)c2ccc(C)cc2)n1C.Cl [P-13, diethylaminoethyl 1-methyl-5-(4-methylbenzoyl)-1H-pyrrole-2-acetate.HCl]
Weight of mice at day 30 [3]: 23 ± 3 | tumor Size at day 30 [3]: 690 ± 250 mm^3 | time until lesions healed after the application [1]: 10 days

apparent flux (in vitro penetration rate) [2]: 1 μg/cm^2/h
Structure (SMILES): CC(=O)N[C@@H](Cc1ccc(OC(C)=O)c(OC(C)=O)c1)C(=O)[O-].[Na+] [N-acetyl-3-(3,4-diacetyloxy-phenyl-L-alaninesodium salt, reference compound]

Structure (SMILES): CCN(CC)CCOC(=O)c1cc(NC(C)=O)ccc1OC(C)=O.Cl [P-58, diethylaminoethyl 5-acetamido-acetylsalicylate.HCl]
blood glucose, Baseline ([4]; equal to 20 mg/kg of NSAIAs transdermally twice per day for 7 weeks): 17.9 ± 3.2 mmol/L | blood glucose, Average ([4]; fourth week to seventh week, no fasting, equal to 20 mg/kg of NSAIAs transdermally twice per day): 8.1 ± 1.9 mmol/L | blood glucose, Average (Week 2-5) [5]: 9.4 ± 3.0 mmol/L | blood glucose, Day 1 [5]: 17.1 ± 2.8 mmol/L | Cholesterol (total), Day 1 [6]: 7.1 ± 0.3 mmol/L | Cholesterol (total), Week 5 [6]: 5.1 ± 0.6 mmol/L | Triglycerides, Day 1 [6]: 4.9 ± 0.4 mmol/L | Triglycerides, Week 5 [6]: 4.3 ± 0.5 mmol/L | blood glucose, Day 1 [6]: 15.6 ± 2.9 mmol/L | blood glucose, Week 5 [6]: 9.3 ± 2.1 mmol/L | blood glucose, Average (Week 2-5) [7]: 5.8 ± 1.1 mmol/L | blood glucose, Day 1 [7]: 5.9 ± 1.2 mmol/L
